Experimental data published in US6562802B2, “Medical composition and uses thereof” (Noviscens AB, priority 1996, dated 2003).

Key:
UV B radiation = experiment: biological light protection factor against UV B radiation, erythema score on skin of volunteers; type: in vivo, human; conditions: 5.0% (w/w) in petrolatum, light exposure for 16 and 32 seconds, two volunteers
Procedure: The biological light protection factor of the sunscreen formulation was determined at two concentrations of the active agent, P-PABA. The two formulations were prepared and tested at a concentration of 5.0% and 10% (w/w). For comparison, one control sunscreen agent was also studied. The UV B protection agent, ethylhexyl-4-dimethylaminobenzoic acid (EHD-PABA) was prepared at a concentration of 5.0% (w/w) in petrolatum. The test was performed on the skin of two volunteers, under standardized conditions by application of 0.1 ml of the formulation per 100 cm^2 of skin area on their backs.
An Osram Ultravitalux lamp was used as light source. The light protection factor was determined and compared to vehicle and untreated skin after light exposure on cylindrical (1.0 cm i.d.) skin areas for 16 and 32 seconds. The results were evaluated from intensity of the erythema score (FIG. 8; A) untreated control, b) 10% P-PABA, c) 5% P-PABA, D) vehicle, and E) EHD-PABA. Light exposure as indicated on each skin area for 16 seconds (left) and 32 seconds (right)). The biological protection against UV B radiation obtained by the UV B standard EHD-PABA absorber was almost similar to the protection by the polymeric P-PABA derivative.

[1] = sunscreen index according to Kumler (UV absorbing characteristics); type: physicochemical

CCCCC(CC)COC(=O)c1ccc(N(C)C)cc1 (stereo not shown) [EHD-PABA, ethylhexyl-4-dimethylaminobenzoic acid]
protection against UV B radiation (erythema score) (UV B radiation): insufficient at 32 seconds in one of the volunteers

Nc1ccc(C(=O)O)cc1 [p-aminobenzoic acid (reference), p-aminobenzoic acid]
Sunscreen index [1]: 7.4

PE-N-aminobenzoic acid [P-PABA]
Sunscreen index [1]: 6.2 | protection against UV B radiation (erythema score) (UV B radiation): complete
